Test results as given in publication PMC6704710, “Preclinical evaluation of 3D185, a novel potent inhibitor of FGFR1/2/3 and CSF-1R, in FGFR-dependent and macrophage-dominant cancer models” (Journal of Experimental & Clinical Cancer Research : CR, 2019).

Assays:
Test in all cases: Eurofins kinase panel
Assay type in all cases: biochemical
Conditions in all cases: read-out: Inhibition rate (%)
EphB3(h) = molecular target: T1, EphB3(h) (Homo sapiens, UniProt P54753)
T1 construct: purchased Eurofins (KinaseProfiler)
T1 sequence (P54753 34-998): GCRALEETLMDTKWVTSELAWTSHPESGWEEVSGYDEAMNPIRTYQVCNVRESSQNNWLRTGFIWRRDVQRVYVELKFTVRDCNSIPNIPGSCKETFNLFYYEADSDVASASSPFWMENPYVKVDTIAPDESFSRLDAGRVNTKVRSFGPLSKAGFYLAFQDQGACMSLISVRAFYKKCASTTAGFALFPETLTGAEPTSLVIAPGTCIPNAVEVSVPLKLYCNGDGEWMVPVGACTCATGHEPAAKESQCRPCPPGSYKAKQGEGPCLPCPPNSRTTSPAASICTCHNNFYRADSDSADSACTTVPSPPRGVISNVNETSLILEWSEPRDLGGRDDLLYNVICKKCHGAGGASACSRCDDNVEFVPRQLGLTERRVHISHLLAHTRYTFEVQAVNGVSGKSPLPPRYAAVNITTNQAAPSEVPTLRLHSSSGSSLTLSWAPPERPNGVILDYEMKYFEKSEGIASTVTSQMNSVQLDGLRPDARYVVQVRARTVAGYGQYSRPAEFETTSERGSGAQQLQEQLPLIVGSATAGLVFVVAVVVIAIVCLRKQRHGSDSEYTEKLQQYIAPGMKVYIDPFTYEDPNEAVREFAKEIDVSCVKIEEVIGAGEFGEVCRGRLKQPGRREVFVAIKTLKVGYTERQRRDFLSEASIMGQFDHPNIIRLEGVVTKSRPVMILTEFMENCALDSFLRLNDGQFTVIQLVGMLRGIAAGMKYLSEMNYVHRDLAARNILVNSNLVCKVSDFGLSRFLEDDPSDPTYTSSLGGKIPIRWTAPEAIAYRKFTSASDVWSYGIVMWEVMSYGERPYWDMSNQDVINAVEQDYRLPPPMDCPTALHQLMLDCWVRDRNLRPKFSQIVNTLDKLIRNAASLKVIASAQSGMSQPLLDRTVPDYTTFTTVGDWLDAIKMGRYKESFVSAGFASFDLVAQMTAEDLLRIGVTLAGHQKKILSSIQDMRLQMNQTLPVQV

CK1γ3(h) = molecular target: T2, CK1γ3(h) (Homo sapiens, UniProt Q9Y6M4)
T2 construct: purchased Eurofins (KinaseProfiler)
T2 sequence (Q9Y6M4 whole entry): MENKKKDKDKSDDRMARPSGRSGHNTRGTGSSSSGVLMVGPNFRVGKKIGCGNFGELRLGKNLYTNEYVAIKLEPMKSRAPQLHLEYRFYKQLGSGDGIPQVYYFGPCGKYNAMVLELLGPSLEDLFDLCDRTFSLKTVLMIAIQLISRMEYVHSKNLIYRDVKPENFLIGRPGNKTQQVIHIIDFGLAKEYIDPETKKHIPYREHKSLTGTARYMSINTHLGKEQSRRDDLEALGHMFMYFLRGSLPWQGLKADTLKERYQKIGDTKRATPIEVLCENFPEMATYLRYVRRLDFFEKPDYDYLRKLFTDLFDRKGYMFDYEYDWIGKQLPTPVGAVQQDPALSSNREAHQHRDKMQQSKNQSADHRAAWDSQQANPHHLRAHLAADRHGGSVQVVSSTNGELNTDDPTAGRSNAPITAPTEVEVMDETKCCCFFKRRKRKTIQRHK

eEF-2K(h) = molecular target: T3, eEF-2K(h) (Homo sapiens, UniProt O00418)
T3 construct: purchased Eurofins (KinaseProfiler)
T3 sequence (O00418 1-725): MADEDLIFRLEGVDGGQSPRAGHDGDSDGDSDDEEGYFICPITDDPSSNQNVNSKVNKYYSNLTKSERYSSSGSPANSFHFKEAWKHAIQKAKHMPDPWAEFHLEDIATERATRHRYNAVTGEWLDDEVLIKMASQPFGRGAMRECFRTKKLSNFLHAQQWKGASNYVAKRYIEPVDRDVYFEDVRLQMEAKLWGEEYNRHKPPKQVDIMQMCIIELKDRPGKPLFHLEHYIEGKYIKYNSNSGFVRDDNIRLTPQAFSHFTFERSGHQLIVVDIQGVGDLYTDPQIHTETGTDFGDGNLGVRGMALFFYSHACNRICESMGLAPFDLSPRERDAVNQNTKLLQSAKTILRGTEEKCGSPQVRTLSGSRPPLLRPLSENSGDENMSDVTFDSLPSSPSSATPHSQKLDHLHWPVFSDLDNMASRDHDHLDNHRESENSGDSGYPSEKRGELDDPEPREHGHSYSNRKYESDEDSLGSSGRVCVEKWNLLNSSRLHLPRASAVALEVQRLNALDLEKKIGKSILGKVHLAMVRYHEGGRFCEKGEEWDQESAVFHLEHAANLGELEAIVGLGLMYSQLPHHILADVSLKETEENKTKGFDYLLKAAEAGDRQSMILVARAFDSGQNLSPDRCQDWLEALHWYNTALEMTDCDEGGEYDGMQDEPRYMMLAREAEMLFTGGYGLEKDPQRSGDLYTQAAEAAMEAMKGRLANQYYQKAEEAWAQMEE

Rse(h) = molecular target: T4, Rse(h) (Homo sapiens, UniProt Q06418)
T4 construct: purchased Eurofins (KinaseProfiler)
T4 sequence (Q06418 41-890): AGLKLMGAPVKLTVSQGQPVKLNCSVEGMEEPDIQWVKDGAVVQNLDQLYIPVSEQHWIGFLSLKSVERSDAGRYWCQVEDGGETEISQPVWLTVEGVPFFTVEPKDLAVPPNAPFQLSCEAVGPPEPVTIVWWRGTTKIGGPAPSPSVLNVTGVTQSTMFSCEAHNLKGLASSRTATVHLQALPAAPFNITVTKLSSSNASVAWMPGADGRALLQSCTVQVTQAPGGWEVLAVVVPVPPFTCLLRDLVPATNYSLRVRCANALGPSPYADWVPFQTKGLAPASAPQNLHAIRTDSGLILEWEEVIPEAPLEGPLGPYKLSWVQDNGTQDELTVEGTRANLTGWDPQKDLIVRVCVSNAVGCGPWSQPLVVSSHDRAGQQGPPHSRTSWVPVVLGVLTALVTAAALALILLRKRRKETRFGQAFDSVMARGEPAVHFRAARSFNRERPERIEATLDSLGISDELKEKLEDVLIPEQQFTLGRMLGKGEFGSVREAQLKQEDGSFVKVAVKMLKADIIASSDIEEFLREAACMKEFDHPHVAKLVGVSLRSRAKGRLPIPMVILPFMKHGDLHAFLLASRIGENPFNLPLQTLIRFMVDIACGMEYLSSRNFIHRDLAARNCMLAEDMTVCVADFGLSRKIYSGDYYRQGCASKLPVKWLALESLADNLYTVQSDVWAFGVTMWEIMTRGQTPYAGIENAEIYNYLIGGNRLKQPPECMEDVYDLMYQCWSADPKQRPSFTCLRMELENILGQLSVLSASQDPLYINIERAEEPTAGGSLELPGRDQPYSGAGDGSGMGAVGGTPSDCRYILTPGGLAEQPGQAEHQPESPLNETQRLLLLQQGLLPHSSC

COc1cc(OC)c(Cl)c(-c2ccc3c(NC(=O)c4ccc(N5CCNC(C)(C)C5)cc4)n[nH]c3n2)c1Cl [3D185]
inhibition at 0.01 µM (EphB3(h); 10 nM): 13%
inhibition at 0.1 µM (EphB3(h); 100 nM): 1%
inhibition at 1 µM (EphB3(h); 1000 nM): 5%
inhibition at 0.01 µM (CK1γ3(h); 10 nM): 1%
inhibition at 0.1 µM (CK1γ3(h); 100 nM): -10%
inhibition at 1 µM (CK1γ3(h); 1000 nM): 12%
inhibition at 0.01 µM (eEF-2K(h); 10 nM): 4%
inhibition at 0.1 µM (eEF-2K(h); 100 nM): 2%
inhibition at 1 µM (eEF-2K(h); 1000 nM): 11%
inhibition at 0.01 µM (Rse(h); 10 nM): 5%
inhibition at 0.1 µM (Rse(h); 100 nM): -2%
inhibition at 1 µM (Rse(h); 1000 nM): 16%
